Molecules are shown by their SMILES.

One data set can be described thus: Aqueous solubility. Format: physicochemical. The source says: By the term “effective amount” of a compound or property as provided herein is meant such amount as is capable of performing the function of the compound or property for which an effective amount is expressed. As will be pointed out below, the exact amount required will vary from process to process, depending on recognized variables such as the compounds employed and the processing conditions observed. Thus, it is not possible to specify an exact “effective amount.” However, an appropriate effective amount may be determined by one of ordinary skill in the art using only routine experimentation. Generally the concentration of the compounds will be, but not limited to, at least about 0.1% (e.g., at least 0.1%; for example in an aqueous solution), at least about 1% (e.g., at least 1%), preferably at least about 2% (e.g., at least 2%), preferably at least about 3% (e.g., at least 3%), preferably at least about 4% (e.g., at least 4%). […] However, higher concentrations than the limits shown could be obtained using solubilizing agents (e.g., DMSO of DMF) or chelating agents; for example, at least about 5% (e.g., at least 5%), preferably at least about 6% (e.g., at least 6%), preferably at least about 7% (e.g., at least 7%), preferably at least about 8% (e.g., at least 8%), preferably at least about 9% (e.g., at least 9%), and preferably at least about 10% (e.g., at least 10%). Concentrations lower than about 2% would require longer duration of exposure, such as the composition in a bait station to which the target insects have long term access to, thus increasing the total dose.

For another data set, the system named is Drosophila suzukii. Nature of the data set: Feeding test of D. suzukii adults with tyramine or M-tyramine sucrose solutions (fly mortality). The settings on record: 7 days; for fly mortality, first and second experiments: 1% solution in 0.5 M sucrose; for mortality: 4% compound in 0.5 M sucrose. Format: in vivo. How it is done: Flies and sugars: Drosophila suzukii used in these experiments were from a colony maintained at 22±5° C. under a photoperiod of L:D 16:8 h and a relative humidity of 60±5% RH at the Horticultural Crops Research Unit, USDA ARS in Corvallis, Oreg. Wildtype flies collected from infested fruits in Corvallis, Oreg., were used to start the colony. Standard rearing methods and diet are described by Woltz et al. (Journal of Applied Entomology, 139: 759-770 (2015)). Newly emerged adult males and females were collected daily and maintained in cages with water and diet until they were specific ages for experimentation.
The chemical components were tyramine (98%, Sigma-Aldrich), N-methyl-tyramine (shortened name=M-tyramine), 95%, Combi-Blocks, Inc.), and sucrose (>99%, Fisher Scientific, Hampton, N.H.).
The effect of tyramine and M-tyramine formulations on fly mortality-I: Ten 5-day old flies (5 males and 5 females) were introduced into a plastic vial and given a tube (1.5 ml) containing different water-based solutions (FIG. 1). For the first experiment various pairs were tested (FIG. 2A): (a) Sucrose 0.5 M only; (b) Tyramine 0.1%+Sucrose 0.5 M (0.1% Tyramine); (c) Tyramine 1%+Sucrose 0.5 M (1% Tyramine); (d) M-Tyramine 0.1%+Sucrose 0.5 M (0.1% M-Tyramine); and (e) M-Tyramine 1%+Sucrose 0.5 M (1% M-Tyramine).
The effect of tyramine and M-tyramine formulations on fly mortality-II: The second experiment consisted of the following (FIG. 2B): (a) Sucrose 0.5 M only; (b) Tyramine 1%+Sucrose 0.5 M (1% Tyramine); (c) Tyramine 2%+Sucrose 0.5 M (2% Tyramine); (d) M-Tyramine 1%+Sucrose 0.5 M (1% M-Tyramine), and (e) M-Tyramine 2%+Sucrose 0.5 M (2% M-Tyramine).
The effect of tyramine and M-tyramine formulations on fly mortality-III: The third experiment consisted of the following (FIG. 2C): (a) Sucrose 0.5 M only; (b) Tyramine 2%+Sucrose 0.5 M (2% Tyramine); (c) Tyramine 4%+Sucrose 0.5 M (4% Tyramine); (d) M-Tyramine 2%+Sucrose 0.5 M (2% M-Tyramine); and (e) M-Tyramine 4%+Sucrose 0.5 M (4% M-Tyramine). Survivorship of flies was checked daily for 7 days. Each pair per experiment was replicated at least eight times.

Another data set relates to fire ant. The data set is described as follows: Feeding of biogenic amines to fire ants (worker and queen mortality). Format: in vivo. The settings on record: for fire ant worker mortality versus sucrose controls: biogenic amines all formulated at 1.0%.
The next data set relates to tawny crazy ant workers. Nature of the data set: Pest ant specificity of tyramine using tawny crazy ant workers. Format: in vivo.

With `CNCCc1ccc(O)cc1` [M-tyramine, N-methyl-tyramine], in “Aqueous solubility” (free base), the “aqueous solubility (upper limit)” value is approximately 3.4%. In addition, the “aqueous solubility (upper limit)” value in the data set “Aqueous solubility” (salt form) is recorded as “about 10%”. Further, in the data set on Drosophila suzukii, the “fly mortality, first and second experiments” value was “not statistically consistent”; the mortality was 100%.
For `NCCc1ccc(O)c(O)c1` [dopamine], the “fire ant worker mortality versus sucrose controls” value in the data set on fire ant is given as “no different than the sucrose controls”.
On the same count and under the same terms, next, `NCCc1c[nH]cn1` [histamine]: “no different than the sucrose controls”; `NCC(O)c1ccc(O)cc1` (centres unmarked) [octopamine]: “no different than the sucrose controls”; `NCCc1c[nH]c2ccc(O)cc12` [serotonin]: “no different than the sucrose controls”.
Regarding `NCCc1ccc(O)cc1` [tyramine], the “aqueous solubility (upper limit)” value in the data set “Aqueous solubility” (free base) is “about 1%”; in the data set “Aqueous solubility” (salt form), “about 5%”. Besides, the “fire ant worker mortality versus sucrose controls” value in the data set on fire ant is on record as “significant fire ant worker mortality”. Moreover, the “mortality in small lab colonies” value in the data set on fire ant (tyramine fed to small lab fire ant colonies) is “worker and queen fire ant mortality”. The “fire ant worker mortality” value with fire ant (workers fed 1.0, 0.1, and 0.01% wt(g)/vol(L)) is listed as “significant mortality”. Besides, in the data set on Drosophila suzukii (0.1% solution in 0.5 M sucrose), the “fly mortality versus 0.5 M sucrose negative control” value is “not significantly different”. In the data set with Drosophila suzukii, the “fly mortality, first and second experiments” value is “not statistically consistent”. The same molecule showed a mortality in the data set on Drosophila suzukii of 100%. For the same molecule, the “mortality of tawny crazy ant workers versus controls” value with tawny crazy ant workers was “did not result in mortality greater than the controls”.
